In the supplement of paper PMC11451515:

Experiments:
Details in all cases: 48 h
SEM cells [1] = test: AUC of viability dose-response curve (% viability x log10 dose units); higher = less sensitive
Method in brief: (§1)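 Area under the curve was integrated by trapezoidal rule from a log-logistic fit of normalised viability, with curves exceeding full viability scaled and quality-control failures removed. The fit had four parameters over log10 doses. Viability came from CellTiter-Glo One luminescence, normalised per plate to DMSO and cell-free wells, after leukemia cells adapted to each medium (500 or 1000 cells/well, 1536-well plates) were exposed to library compounds in DMSO for 48 h at 37°C. The 11 threefold doses ran from 47 μM to 0.79 nM.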

NOMO1 [2] = test: as above
Method in brief: as §1

P12-Ichikawa [3] = test: as above
Method in brief: as §1

SEM cells [4] = test: cell viability relative to DMSO control; higher = less cytotoxic
Method in brief: (§2)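 Viability is a per-plate percentage relative to DMSO wells, with cell-free wells as background. CellTiter-Glo One luminescence was read after 48 h at 37°C on 1536-well plates (5 μl) of NOMO1 or SEM (500 cells/well) or P12-Ichikawa (1000 cells/well) leukemia cells. The cells had been adapted for at least four passages in each medium and pin-dosed with library compounds in DMSO from 47 μM to 0.79 nM in 11 threefold steps.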

NOMO1 [5] = test: as above
Method in brief: as §2

P12-Ichikawa [6] = test: as above
Method in brief: as §2

O=C(O[C@H]1C[C@H]2CC[C@@H](C1)[N+]21CCCC1)C(O)(c1ccccc1)c1ccccc1.[Cl-]
AUC of viability dose-response curve
Details | NOMO1 [2] | P12-Ichikawa [3] | SEM cells [1]
HPLM + 10% dialyzed FBS | 472 | 461 | 460
RPMI 5 mM glucose + 10% FBS | 462 | 464 | 437
RPMI 5 mM glucose + 10% dialyzed FBS | 467 | 470 | 449

cell viability [%]
Details | NOMO1 [5] | P12-Ichikawa [6] | SEM cells [4]
HPLM + 10% dialyzed FBS, 0.000781 µM | 95.5 | 104 | 97.4
HPLM + 10% dialyzed FBS, 0.00234 µM | 116 | 104 | 96.2
HPLM + 10% dialyzed FBS, 0.00702 µM | 121 | 112 | 104
HPLM + 10% dialyzed FBS, 0.0211 µM | 107 | 106 | 103
HPLM + 10% dialyzed FBS, 0.0632 µM | 124 | 117 | 115
HPLM + 10% dialyzed FBS, 0.19 µM | 116 | 105 | 113
HPLM + 10% dialyzed FBS, 0.569 µM | 116 | 110 | 115
HPLM + 10% dialyzed FBS, 1.71 µM | 116 | 116 | 115
HPLM + 10% dialyzed FBS, 5.12 µM | 116 | 107 | 118
HPLM + 10% dialyzed FBS, 15.4 µM | 110 | 116 | 113
HPLM + 10% dialyzed FBS, 46.1 µM | 106 | 110 | 98.2
RPMI 5 mM glucose + 10% FBS, 0.000781 µM | 89.4 | 107 | 90
RPMI 5 mM glucose + 10% FBS, 0.00234 µM | 95.7 | 104 | 98.1
RPMI 5 mM glucose + 10% FBS, 0.00702 µM | 99.6 | 113 | 88.4
RPMI 5 mM glucose + 10% FBS, 0.0211 µM | 89.9 | 116 | 98.9
RPMI 5 mM glucose + 10% FBS, 0.0632 µM | 92.3 | 120 | 103
RPMI 5 mM glucose + 10% FBS, 0.19 µM | 98.3 | 127 | 95.8
RPMI 5 mM glucose + 10% FBS, 0.569 µM | 96.8 | 127 | 97.9
RPMI 5 mM glucose + 10% FBS, 1.71 µM | 105 | 106 | 127
RPMI 5 mM glucose + 10% FBS, 5.12 µM | 100 | 113 | 109
RPMI 5 mM glucose + 10% FBS, 15.4 µM | 105 | 115 | 106
RPMI 5 mM glucose + 10% FBS, 46.1 µM | 92.1 | 115 | 99.9
RPMI 5 mM glucose + 10% dialyzed FBS, 0.000781 µM | 97.6 | 99.5 | 81
RPMI 5 mM glucose + 10% dialyzed FBS, 0.00234 µM | 98.8 | 99.9 | 101
RPMI 5 mM glucose + 10% dialyzed FBS, 0.00702 µM | 111 | 105 | 98.5
RPMI 5 mM glucose + 10% dialyzed FBS, 0.0211 µM | 109 | 106 | 108
RPMI 5 mM glucose + 10% dialyzed FBS, 0.0632 µM | 98.1 | 117 | 132
RPMI 5 mM glucose + 10% dialyzed FBS, 0.19 µM | 102 | 110 | 122
RPMI 5 mM glucose + 10% dialyzed FBS, 0.569 µM | 94.8 | 104 | 115
RPMI 5 mM glucose + 10% dialyzed FBS, 1.71 µM | 95 | 113 | 117
RPMI 5 mM glucose + 10% dialyzed FBS, 5.12 µM | 111 | 107 | 119
RPMI 5 mM glucose + 10% dialyzed FBS, 15.4 µM | 106 | 103 | 117
RPMI 5 mM glucose + 10% dialyzed FBS, 46.1 µM | 108 | 103 | 122
